Reference: the NIST ThermoML archive (doi:10.1021/je300568h)
Numbers after ± are expanded uncertainties.

Details: Liquid, Ebulliometric method (Recirculating still)

| SMILES | vapor or sublimation pressure (420.2 K) [kPa] | vapor or sublimation pressure (436.7 K) [kPa] | vapor or sublimation pressure (448.2 K) [kPa] | vapor or sublimation pressure (457.9 K) [kPa] | vapor or sublimation pressure (330.9 K) [kPa] | vapor or sublimation pressure (345 K) [kPa] | vapor or sublimation pressure (355.1 K) [kPa] | vapor or sublimation pressure (363.2 K) [kPa] | vapor or sublimation pressure (366.7 K) [kPa] |
| --- | --- | --- | --- | --- | --- | --- | --- | --- | --- |
| CCCCCCCCN(C)C [N,N-dimethyl-1-octanamine] | 29.84 ± 0.74 | 49.84 ± 0.89 | 69.83 ± 1.2 | 89.83 ± 1.3 | – | – | – | – | – |
| CCCCN(C)C [N,N-dimethylbutanamine] | – | – | – | – | 29.84 ± 0.86 | 49.84 ± 0.99 | 69.83 ± 1.3 | 89.83 ± 1.6 | 99.83 ± 1.7 |
